This note sets out measurements from patent US20230148184A1, “COMPOUNDS AND METHODS FOR MODULATING SPLICING” (REMIX THERAPEUTICS INC., priority 2020, published 2023).

Assay type in all cases: cell-based
The subject of experiment [1] is HTT CJ mRNA. Description: Gene panel canonical junction qPCR assay, HTT. The conditions noted are these: decrease in CJ mRNA levels, RT-qPCR. As for the experimental part:
(§1) Compounds described herein were used to modulate RNA transcript abundance in cells. The expression of a target mRNA was measured by detecting the formation of an exon-exon junction in the canonical transcript (CJ). A compound mediated exon-inclusion event was detected by observing an increase in formation of a new junction with an alternative exon (AJ). Real-time qPCR assays were used to detect these splicing switches and interrogate the potency of various compounds towards different target genes. A high-throughput real time quantitative PCR (RT-qPCR) assay was developed to measure these two isoforms of the mRNA (CJ and AJ) for an exemplary gene, HTT, together with a control housekeeping gene, GAPDH or GUSB or PPIA, used for normalization. Briefly, the A673 or K562 cell line was treated with various compounds described herein (e.g., compounds of Formula (I)). After treatment, the levels of the HTT mRNA targets were determined from each sample of cell lysate by cDNA synthesis followed by qPCR.
(§2) The A673 cell line was cultured in DMEM with 10% FBS. Cells were diluted with full growth media and plated in a 96-well plate (15,000 cells in 100 ul media per well). The plate was incubated at 37° C. with 5% CO2 for 24 hours to allow cells to adhere. An 11-point 3-fold serial dilution of the compounds was made in DMSO then diluted in media in an intermediate plate. Compounds were transferred from the intermediate plate to the cell plate with the top dose at a final concentration of 10 uM in the well. Final DMSO concentration was kept at or below 0.25%. The cell plate was returned to the incubator at 37° C. with 5% CO2 for an additional 24 hours.
(§3) The K562 cell line was cultured in IMDM with 10% FBS. For K562, cells were diluted with full growth media and plated in either a 96-well plate (50,000 cells in 50 uL media per well) or a 384-well plate (8,000-40,000 cells in 45 uL media per well). An 11-point 3-fold serial dilution of the compounds were made in DMSO then diluted in media in an intermediate plate. Compound was transferred from the intermediate plate to the cell plate with the top dose at a final concentration of 10 uM in the well. Final DMSO concentration was kept at or below 0.25%. Final volume was 100 uL for 96-well plate and 50 uL for 384-well plate. The cell plate was then placed in an incubator at 37° C. with 5% CO2 for 24 hours.
(§4) The cells were then gently washed with 50 uL-100 uL cold PBS before proceeding to addition of lysis buffer. 30 uL-50 uL of room temperature lysis buffer with DNAse I (and optionally RNAsin) was added to each well. Cells were shaken/mixed thoroughly at room temperature for 5-10 minutes for lysis to take place and then 3 uL-5 uL of room temperature stop solution was added and wells were shaken/mixed again. After 2-5 minutes, the cell lysate plate was transferred to ice for RT-qPCR reaction setup. The lysates could also be frozen at −80° C. for later use.
(§5) In some cases, a direct lysis buffer was used. An appropriate volume of 3× lysis buffer (10 mM Tris, 150 mM NaCl, 1.5%-2.5% Igepal and 0.1-1 U/uL RNAsin, pH 7.4) was directly added to either K562 or A673 cells in media and mixed by pipetting 3 times. The plates were then incubated at room temperature with shaking/rocking for 20-50 minutes to allow for lysis to take place. After this time, the cell lysate plate was transferred to ice to set up for the RT-qPCR reactions. The lysates could also be frozen at −80° C. for later use.
(§6) To set up 10 uL RT-qPCR reactions, cell lysates were transferred to 384-well qPCR plates containing the master mix according to the table below. The plates were sealed, gently vortexed, and spun down before the run. The volumes were adjusted accordingly in some instances where the reaction was carried in 20 uL. The table below summarizes the components of the RT-qPCR reactions:
(§7) The RT-qPCR reaction was performed using a QuantStudio (ThermoFisher) under the following fast cycling conditions. […]

In experiment [2] the test system is SMN2 CJ mRNA. The experiment can be described thus: Gene panel canonical junction qPCR assay, SMN2. The conditions noted are these: decrease in CJ mRNA levels, RT-qPCR. The protocol:
as §1, §2, §3, §4, §5, §6, §7
Background: In qPCR the cycle at which signal appears reflects the starting amount.

Experiment [3] concerns HTT mRNA. Description: RT-qPCR splicing assay for HTT mRNA isoforms (canonical junction CJ and alternative junction AJ). The conditions noted are these: A673 or K562 cell line, 24 hours compound treatment; for IC50: decrease in CJ mRNA; for AC50: increase in AJ mRNA. As for the experimental part:
as §1
Cells-to-CT 1-step kit: ThermoFisher A25602, Cells-to-CT lysis reagent: ThermoFisher 4391851C, TaqMan™ Fast Virus 1-Step Master Mix: ThermoFisher 4444436 GAPDH: VIC-PL, ThermoFisher 4326317E (Assay: Hs99999905_m1)—used for K562/suspension cell lines GUSB: VIC-PL, ThermoFisher 4326320E (Assay: Hs99999908_m1)—used for K562/suspension cell lines PPIA: VIC-PL, ThermoFisher 4326316E (Assay: Hs99999904_m1)—used for A673/adherent cell lines
as §2, §3, §4
In some cases, a direct lysis buffer was used. An appropriate volume of 3× lysis buffer (10 mM Tris, 150 mM NaCl, 1.5%-2.5% Igepal and 0.1-1 U/uL RNAsin, pH 7.4) was directly added to either K562 or A673 cells in media and mixed by pipetting 3 times. The plates were then incubated at room temperature with shaking/rocking for 20-50 minutes to allow for lysis to take place. After this time, the cell lysate plate was transferred to ice to set up for the RT-qPCR reactions. The lysates could also be frozen at −80° C. for later use. […]

The test system of experiment [4] is Target C CJ mRNA. The experiment can be described thus: Gene panel canonical junction qPCR assay, Target C. The conditions noted are these: decrease in CJ mRNA levels, RT-qPCR. As for the experimental part:
as §1, §2, §3, §4, §5, §6, §7

With `CN(c1ccc2c(n1)OCCc1cc(-c3cn[nH]c3)ccc1-2)[C@@H]1C[C@H]2CC[C@@H](C1)N2` [Compound 146], the IC50 – broadly, the midpoint of a concentration-inhibition curve – is 1 to 10 µM in experiment [1], over 10 µM in experiment [2], 1 to 10 µM in experiment [3] and over 10 µM in experiment [4]. In addition, in experiment [3], the half-maximal activity concentration (AC50) – broadly, the concentration at which the activity in the assay is half-maximal – was in the range of 1 to 10 µM.
With `c1cnn(-c2ccc3c(c2)OCCc2nc(N[C@@H]4C[C@H]5CC[C@@H](C4)N5)ccc2-3)c1` [Compound 136, N-[(1R,3S,5S)-8-azabicyclo[3.2.1]octan-3-yl]-13-(pyrazol-1-yl)-10-oxa-6-azatricyclo[9.4.0.0^[2,7]]pentadeca-1(11),2(7),3,5,12,14-hexaen-5-amine], the IC50 in experiment [1], in experiment [2], in experiment [3] and in experiment [4] was over 10 µM throughout. The molecule also had an AC50 in experiment [3] of over 10 µM.
For the molecule `Cc1[nH]ncc1-c1ccc2c(c1)COc1nc(N(C)[C@@H]3C[C@H]4CC[C@@H](C3)N4)ccc1-2` [Compound 154], the IC50 in experiment [1], in experiment [2], in experiment [3] and in experiment [4] was 0.1 to 1 µM throughout. In experiment [3], the AC50 lay in the range of 0.1 to 1 µM.
`CN(c1ccc2c(n1)OCc1cc(-n3cccn3)ccc1-2)[C@H]1[C@@H]2CNC[C@@H]21` [Compound 194]: the IC50 was over 10 µM in experiment [1], over 10 µM in experiment [2], 1 to 10 µM in experiment [3] and over 10 µM in experiment [4]. Moreover, the AC50 in experiment [3] was in the range of 1 to 10 µM.
With `c1cnn(-c2ccc3c(c2)COc2nc(N4CC5(CCNCC5)C4)ccc2-3)c1` [Compound 167], the concentration for half-maximal inhibition (IC50) in experiment [1], in experiment [2], in experiment [3] and in experiment [4] was over 10 µM in each case. The same molecule gave an AC50 in experiment [3] of over 10 µM.
With `c1cnn(-c2ccc3c(c2)OCCc2cc(N[C@@H]4C[C@H]5CC[C@@H](C4)N5)ccc2-3)c1` [Compound 139, (1R,3S,5S)—N-[5-(pyrazol-1-yl)-8-oxatricyclo [9.4.0.0^[2,7]]pentadeca-1(11),2(7),3,5,12,14-hexaen-13-yl]-8-azabicyclo [3.2.1] octan-3-amine], the IC50 in experiment [1], in experiment [2], in experiment [3] and in experiment [4] was over 10 µM each time. This molecule also showed an AC50 in experiment [3] of over 10 µM.
With `CN(c1ccc2c(n1)OCc1cc(-n3cccn3)ccc1-2)C1CC(C)(C)NC(C)(C)C1` [Compound 148, N,2,2,6,6-pentamethyl-N-[8-(pyrazol-1-yl)-6H-isochromeno[3,4-b]pyridin-3-yl]piperidin-4-amine], the IC50 in experiment [1] was 1 to 10 µM; in experiment [2], 0.1 to 1 µM; in experiment [3] it was 1 to 10 µM; in experiment [4] it was 1 to 10 µM. In experiment [3], this molecule displayed a concentration at half-maximal activity (AC50) of 1 to 10 µM.
For the molecule `CC1(C)CC(Nc2ccc3c(n2)OCc2cc(-n4cccn4)ccc2-3)CC(C)(C)N1` [Compound 165], the IC50 in experiment [1] is 0.1 to 1 µM; in experiment [2] it was under 0.1 µM; in experiment [3] it was 0.1 to 1 µM; in experiment [4] it was 0.1 to 1 µM. Moreover, the AC50 in experiment [3] was in the range of 0.1 to 1 µM.
With `COc1cc(-c2ccc3c(c2)COc2nc(N(C)[C@@H]4C[C@H]5CC[C@@H](C4)N5)ccc2-3)cnn1` [Compound 159], the half-inhibitory concentration (IC50) in experiment [1], in experiment [2], in experiment [3] and in experiment [4] was under 0.1 µM each time. The AC50 in experiment [3] is under 0.1 µM.
As for `CCN(c1ccc2c(n1)OCc1cc(-n3cccn3)ccc1-2)[C@@H]1C[C@H]2CC[C@@H](C1)N2` [Compound 191], the IC50 in experiment [1] is 0.1 to 1 µM; in experiment [2], 0.1 to 1 µM; in experiment [3] it was 0.1 to 1 µM; in experiment [4], 1 to 10 µM. In addition, in experiment [3], the half-maximal activity concentration (AC50) lay within 1 to 10 µM.
Turning to `CN(c1ccc2c(n1)OCc1cc(-c3cnc(=O)[nH]c3)ccc1-2)[C@@H]1C[C@H]2CC[C@@H](C1)N2` [Compound 161], the IC50 in experiment [1], in experiment [2], in experiment [3] and in experiment [4] was over 10 µM each time. Besides, the half-maximal activity concentration (AC50) in experiment [3] is over 10 µM.
In the case of `COc1cc(-c2ccc3c(c2)COc2nc(N(C)[C@@H]4C[C@H]5CC[C@@H](C4)N5)ccc2-3)ccn1` [Compound 156], the IC50 in experiment [1] was under 0.1 µM; in experiment [2] it was 0.1 to 1 µM; in experiment [3] it was under 0.1 µM; in experiment [4], 0.1 to 1 µM. In experiment [3], this molecule yielded an AC50 of under 0.1 µM.
As to `c1cnn(-c2ccc3c(c2)COc2nc(S[C@@H]4C[C@H]5CC[C@@H](C4)N5)ccc2-3)c1` [Compound 193], the 50% inhibitory concentration (IC50) in experiment [1] was 1 to 10 µM; in experiment [2], over 10 µM; in experiment [3], over 10 µM; in experiment [4], over 10 µM. In experiment [3], this molecule gave a concentration at half-maximal activity (AC50) of over 10 µM.
Take `Cc1cn(-c2ccc3c(c2)COc2nc(N(C)[C@@H]4C[C@H]5CC[C@@H](C4)N5)ccc2-3)cn1` [Compound 164]: the IC50 is under 0.1 µM in experiment [1], under 0.1 µM in experiment [2], under 0.1 µM in experiment [3] and 0.1 to 1 µM in experiment [4]. Besides, in experiment [3], the AC50 is under 0.1 µM.
Turning to `[2H]C([2H])([2H])N(c1ccc2c(n1)OCc1cc(-n3cccn3)ccc1-2)C1CC(C)(C)NC(C)(C)C1` [Compound 199], the IC50 was 1 to 10 µM in experiment [1], 1 to 10 µM in experiment [2], 1 to 10 µM in experiment [3] and over 10 µM in experiment [4]. The same molecule yielded a concentration at half-maximal activity (AC50) in experiment [3] of 1 to 10 µM.
Consider `CCN(c1ccc2c(n1)OCc1cc(-n3cccn3)ccc1-2)[C@@H]1C[C@H]2CCC[C@@H](C1)N2` [Compound 195], for which the results for the IC50 in experiment [1], in experiment [2] and in experiment [4] were 0.1 to 1 µM, 0.1 to 1 µM and 1 to 10 µM, respectively.
As for `c1cc2c(cc1-c1cn[nH]c1)OCCc1nc(N[C@@H]3C[C@H]4CC[C@@H](C3)N4)ccc1-2` [Compound 140, N-[(1R,3S,5S)-8-azabicyclo[3.2.1]octan-3-yl]-13-(1H-pyrazol-4-yl)-10-oxa-6-azatricyclo[9.4.0.0^[2,7]]pentadeca-1(11),2(7),3,5,12,14-hexaen-5-amine], the IC50 in experiment [1], in experiment [2] and in experiment [3] was over 10 µM throughout. In experiment [3], this molecule returned an AC50 of over 10 µM.
Take `CN(c1ccc2c(c1)COc1cc(-n3cccn3)ccc1-2)[C@@H]1C[C@H]2CC[C@@H](C1)N2` [Compound 105]: the IC50 in experiment [1], in experiment [2] and in experiment [3] was over 10 µM throughout. This molecule showed an AC50 in experiment [3] of over 10 µM.
